Measurements from patent publication US20200291018A1, “TAM KINASE INHIBITORS” (SYROS PHARMACEUTICALS, INC., priority 2017, published 2020).
pIC50: −log10 of the molar value.

How the values were obtained:
AXL = target: T1, AXL (Homo sapiens, UniProt P30530); assay: TR-FRET kinase activity assay, AXL; format: biochemical; settings: ATP at Km, 60 minutes
T1 sequence (P30530 26-894): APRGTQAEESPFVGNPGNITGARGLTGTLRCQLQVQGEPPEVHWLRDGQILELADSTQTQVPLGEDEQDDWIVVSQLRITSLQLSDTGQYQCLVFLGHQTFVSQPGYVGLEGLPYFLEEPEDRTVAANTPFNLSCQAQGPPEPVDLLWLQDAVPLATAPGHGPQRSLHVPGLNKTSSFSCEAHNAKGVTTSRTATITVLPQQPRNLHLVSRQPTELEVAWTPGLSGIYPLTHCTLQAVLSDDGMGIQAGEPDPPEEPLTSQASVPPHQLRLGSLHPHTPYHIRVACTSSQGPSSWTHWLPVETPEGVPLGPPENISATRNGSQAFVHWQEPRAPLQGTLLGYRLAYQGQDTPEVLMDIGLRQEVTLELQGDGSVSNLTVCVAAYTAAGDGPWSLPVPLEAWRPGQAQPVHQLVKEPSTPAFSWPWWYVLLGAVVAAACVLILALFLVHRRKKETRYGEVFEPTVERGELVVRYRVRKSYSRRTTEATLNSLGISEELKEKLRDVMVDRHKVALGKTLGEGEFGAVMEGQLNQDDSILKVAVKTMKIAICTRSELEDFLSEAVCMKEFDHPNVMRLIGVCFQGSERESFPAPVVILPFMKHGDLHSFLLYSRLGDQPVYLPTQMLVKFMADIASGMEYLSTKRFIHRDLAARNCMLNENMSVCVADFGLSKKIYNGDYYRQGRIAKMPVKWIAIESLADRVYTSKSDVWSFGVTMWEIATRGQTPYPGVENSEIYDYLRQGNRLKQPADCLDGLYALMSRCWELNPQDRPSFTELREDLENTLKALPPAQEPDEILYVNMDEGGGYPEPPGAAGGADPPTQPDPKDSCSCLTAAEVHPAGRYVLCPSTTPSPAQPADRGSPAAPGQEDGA
Method in brief: (§1)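 Enzyme, fluorescent-labeled peptide substrate and compound were mixed, then ATP was added at each enzyme's Km. Buffer was 50 mM HEPES pH 7.5, 10 mM MgCl2, 1 mM EGTA, 0.01% Brij 35, 1 mM DTT at RT. After 60 min, EDTA quench and 30 min with Eu-anti-phosphotyrosine-site antibody; TR-FRET read gave IC50.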

MERTK = target: T2, MERTK (Homo sapiens, UniProt Q12866); assay: TR-FRET kinase activity assay, MERTK; format: biochemical; settings: for pIC50: TR-FRET activity assay, ATP at Km, 60 minutes, read-out: Mer IC50; for Mer/Flt3 ratio (FLT3 IC50/Mer IC50): ratio calculated as FLT3 IC50/Mer IC50
T2 sequence (Q12866 21-999): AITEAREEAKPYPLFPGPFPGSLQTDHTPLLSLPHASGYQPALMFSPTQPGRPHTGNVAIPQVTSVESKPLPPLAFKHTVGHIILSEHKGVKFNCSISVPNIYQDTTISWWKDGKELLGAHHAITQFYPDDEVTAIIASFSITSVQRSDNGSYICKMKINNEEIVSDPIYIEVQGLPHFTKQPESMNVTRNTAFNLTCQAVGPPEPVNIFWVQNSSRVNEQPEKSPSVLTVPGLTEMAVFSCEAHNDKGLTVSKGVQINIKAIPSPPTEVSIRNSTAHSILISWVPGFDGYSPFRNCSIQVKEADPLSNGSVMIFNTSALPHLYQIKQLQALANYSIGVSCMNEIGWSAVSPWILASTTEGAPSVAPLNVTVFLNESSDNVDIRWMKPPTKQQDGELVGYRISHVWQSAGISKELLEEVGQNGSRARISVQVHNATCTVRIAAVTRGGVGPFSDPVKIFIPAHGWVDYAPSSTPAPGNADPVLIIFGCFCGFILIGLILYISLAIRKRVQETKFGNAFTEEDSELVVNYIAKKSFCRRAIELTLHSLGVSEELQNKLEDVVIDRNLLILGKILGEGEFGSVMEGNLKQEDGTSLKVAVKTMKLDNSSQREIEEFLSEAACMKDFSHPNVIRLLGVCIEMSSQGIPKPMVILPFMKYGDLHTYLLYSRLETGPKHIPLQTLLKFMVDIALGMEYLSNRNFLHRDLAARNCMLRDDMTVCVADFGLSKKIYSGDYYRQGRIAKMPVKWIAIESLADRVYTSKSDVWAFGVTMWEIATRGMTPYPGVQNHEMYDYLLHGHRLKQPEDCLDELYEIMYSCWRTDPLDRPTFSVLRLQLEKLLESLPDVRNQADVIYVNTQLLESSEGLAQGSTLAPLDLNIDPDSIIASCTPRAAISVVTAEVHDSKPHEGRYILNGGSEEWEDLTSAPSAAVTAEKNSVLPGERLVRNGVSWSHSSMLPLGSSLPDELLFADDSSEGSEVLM
Method in brief: as §1

pIC50 (AXL)	pIC50 (MERTK)	Mer/Flt3 ratio (FLT3 IC50/Mer IC50) (MERTK)	SMILES
6.00 to 7.00	≥ 7.00	+++ (a ratio of >100)	COC[C@H](C)Nc1ncc2c(O[C@H]3C[C@@H](O)C3)ncc([C@H]3CC[C@](C)(O)CC3)c2n1 [Compound 426]
6.00 to 7.00	≥ 7.00	+++ (a ratio of >100)	COC[C@H](C)Nc1ncc2c(O[C@H]3C[C@@H](O)C3)ncc([C@H]3CC[C@@](C)(O)CC3)c2n1 [Compound 427]
≥ 7.00	≥ 7.00	+++ (a ratio of >100)	C[C@@H](CC(F)F)Nc1ncc2c(O[C@H]3C[C@@H](O)C3)ncc([C@H]3CC[C@H](O)CC3)c2n1 [Compound 428]
≥ 7.00	≥ 7.00	+++ (a ratio of >100)	C[C@@H](CC(F)(F)F)Nc1ncc2c(O[C@H]3C[C@@](C)(O)C3)ncc([C@H]3CC[C@H](O)CC3)c2n1 [Compound 429]
